Experimental findings from ChEMBL document CHEMBL4665629, “An optimised series of substituted N-phenylpyrrolamides as DNA gyrase B inhibitors” (Eur J Med Chem, 2019) are described below.

In brackets after ≈: the same amount, converted by molar mass.

Test [1] deals with Escherichia coli. Description: Antibacterial activity against Escherichia coli MG1655 harboring […]/D87N and ParC S80I/E84G mutants assessed as minimum inhibitory concentration required for >=90% inhibition of bacterial growth in presence of 50 ug/ml phenylalanine-arginine beta-naphthylamide. It is filed as functional.
Test [2] relates to Enterococcus faecalis. Description: Antibacterial activity against Enterococcus faecalis ATCC 29212 assessed as bacterial growth inhibition at 50 uM incubated for 24 hrs by CLSI protocol based broth microdilution assay relative to control. It is filed as functional.
In test [3] the test system is Escherichia coli. Description: Antibacterial activity against efflux pump d effect ive Escherichia coli JW5503 harbouring tolC mutant assessed as bacterial growth inhibition at 50 uM incubated for 24 hrs by CLSI protocol based broth microdilution assay relative to control. It is filed as functional. On the technique in general: Broth dilution looks for growth in wells or tubes with falling amounts of substance.

Test [4] concerns the target DNA gyrase (Staphylococcus aureus) (UniProt P0A0K8+P20831). The test can be described thus: Inhibition of Staphylococcus aureus DNA gyrase assessed as residual activity at 1 uM using biotinylated oligonucleotide as substrate incubated for 30 mins in presence of ATP by fluorescence-based microplate reader assay relative to control. It is filed as protein-complex assay.

For test [5], the system named is Escherichia coli. Description: Antibacterial activity against Escherichia coli ATCC 25922 assessed as bacterial growth inhibition at 50 uM incubated for 24 hrs by CLSI protocol based broth microdilution assay relative to control. It is filed as functional.
Test [6] deals with Staphylococcus aureus. The test can be described thus: Antibacterial activity against methicillin-resistant Staphylococcus aureus ATCC 43300 assessed as minimum inhibitory concentration required for >=90% inhibition of bacterial growth by CLSI protocol based broth microdilution assay. It is filed as functional.
The subject of test [7] is Streptococcus pyogenes. Description: Antibacterial activity against Streptococcus pyogenes ATCC 19653 assessed as minimum inhibitory concentration required for >=90% inhibition of bacterial growth by CLSI protocol based broth microdilution assay. It is filed as functional.
The test system of test [8] is Klebsiella pneumoniae. The test can be described thus: Antibacterial activity against wild type Klebsiella pneumoniae ATCC 10031 harboring GyrA S83F mutant assessed as minimum inhibitory concentration required for >=90% inhibition of bacterial growth in presence of 10 ug/ml phenylalanine-arginine beta-naphthamide. It is filed as functional.
In test [9] the test system is Escherichia coli. Description: Antibacterial activity against Escherichia coli MG1655 harboring […] mutant assessed as minimum inhibitory concentration required for >=90% inhibition of bacterial growth in presence of 50 ug/ml phenylalanine-arginine beta-naphthylamide. It is filed as functional.
For test [10], the system named is Klebsiella pneumoniae. Description: Antibacterial activity against wild type Klebsiella pneumoniae ATCC 10031 harboring GyrA S83F/D87G and ParC S80I/E84G mutants assessed as minimum inhibitory concentration required for >=90% inhibition of bacterial growth in presence of 10 ug/ml phenylalanine-arginine beta-naphthamide. It is filed as functional.
A short description of test [11]: Inhibition of Escherichia coli DNA topoisomerase 4 assessed as residual activity at 1 uM using biotinylated oligonucleotide as substrate incubated for 30 mins in presence of ATP by fluorescence-based microplate reader assay relative to control.
Test [12] concerns Staphylococcus aureus. Description: Antibacterial activity against methicillin-resistant Staphylococcus aureus ATCC 43300 assessed as minimum inhibitory concentration required for >=90% inhibition of bacterial growth in presence of 50% inactivated human serum by CLSI protocol based broth microdilution assay. It is filed as functional.
For test [13], the target named is DNA gyrase (Escherichia coli, UniProt P0AES4+P0AES6). Description: Inhibition of Escherichia coli DNA gyrase assessed as conversion of NADH to NAD+ by ATPase assay. It is filed as protein-complex assay.
Test [14] concerns Salmonella enterica. The test can be described thus: Antibacterial activity against Salmonella enterica LT2 assessed as minimum inhibitory concentration required for >=90% inhibition of bacterial growth in presence of phenylalanine-arginine beta-naphthylamide by CLSI protocol based broth microdilution assay. It is filed as functional.

DNA gyrase (Staphylococcus aureus), sequence (P0A0K8 2-644 limits assumed): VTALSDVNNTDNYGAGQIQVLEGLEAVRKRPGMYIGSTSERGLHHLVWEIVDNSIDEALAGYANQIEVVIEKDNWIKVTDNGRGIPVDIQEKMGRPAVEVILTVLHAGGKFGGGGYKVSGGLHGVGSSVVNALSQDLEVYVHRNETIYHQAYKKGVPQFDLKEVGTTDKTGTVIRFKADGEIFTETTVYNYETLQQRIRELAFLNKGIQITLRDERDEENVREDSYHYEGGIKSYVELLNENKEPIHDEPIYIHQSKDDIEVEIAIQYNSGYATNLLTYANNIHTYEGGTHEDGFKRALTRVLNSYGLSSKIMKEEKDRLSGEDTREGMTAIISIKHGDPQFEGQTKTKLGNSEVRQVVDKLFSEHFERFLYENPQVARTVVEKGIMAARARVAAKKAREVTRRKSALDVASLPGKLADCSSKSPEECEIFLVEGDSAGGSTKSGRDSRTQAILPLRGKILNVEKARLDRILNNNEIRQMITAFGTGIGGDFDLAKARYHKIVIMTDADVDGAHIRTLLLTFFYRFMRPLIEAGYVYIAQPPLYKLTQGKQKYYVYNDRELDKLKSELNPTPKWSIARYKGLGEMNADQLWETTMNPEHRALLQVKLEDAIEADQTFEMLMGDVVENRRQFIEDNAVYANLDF
DNA gyrase (Staphylococcus aureus), sequence (P20831 whole entry partner): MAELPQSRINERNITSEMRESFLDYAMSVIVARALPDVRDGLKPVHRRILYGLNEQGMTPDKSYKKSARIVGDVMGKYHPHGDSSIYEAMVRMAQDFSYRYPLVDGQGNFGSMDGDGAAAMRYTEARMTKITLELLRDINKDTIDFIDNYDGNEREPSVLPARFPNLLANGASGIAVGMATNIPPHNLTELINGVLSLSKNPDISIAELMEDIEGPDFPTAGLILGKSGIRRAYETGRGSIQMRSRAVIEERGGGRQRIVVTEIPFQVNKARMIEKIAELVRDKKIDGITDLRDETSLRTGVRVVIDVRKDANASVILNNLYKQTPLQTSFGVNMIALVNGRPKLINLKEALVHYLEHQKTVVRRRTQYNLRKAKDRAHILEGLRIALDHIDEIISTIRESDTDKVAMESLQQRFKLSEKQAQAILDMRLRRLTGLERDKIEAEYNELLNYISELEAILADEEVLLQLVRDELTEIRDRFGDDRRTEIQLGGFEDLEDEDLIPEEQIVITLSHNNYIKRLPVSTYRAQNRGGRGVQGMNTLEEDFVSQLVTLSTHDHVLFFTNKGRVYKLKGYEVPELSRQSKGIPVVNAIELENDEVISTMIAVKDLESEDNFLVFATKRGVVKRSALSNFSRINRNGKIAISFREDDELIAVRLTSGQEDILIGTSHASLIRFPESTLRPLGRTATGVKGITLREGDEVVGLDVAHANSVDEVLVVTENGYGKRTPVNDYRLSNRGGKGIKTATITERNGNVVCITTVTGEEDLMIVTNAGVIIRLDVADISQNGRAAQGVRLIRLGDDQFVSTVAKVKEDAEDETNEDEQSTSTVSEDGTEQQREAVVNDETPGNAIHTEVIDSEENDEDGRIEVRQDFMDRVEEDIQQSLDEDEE

A word on the MIC: it is the lowest concentration found to suppress growth. Usually inhibition stands for the share of the control response that was lost under treatment. For orientation: IC50 means the concentration that inhibits the measured activity by half. `CCn1cc(C(=O)O)c(=O)c2ccc(NC(=O)c3[nH]c(C)c(Cl)c3Cl)cc21`: the MIC in [1] was 2.5 µM; in test [6], 2.5 µM (≈ 1.02 µg/mL); in test [7], 0.72 µM (≈ 0.294 µg/mL); in test [8], 1.2 µM; in test [9] it was 2.5 µM; in test [10], 1.2 µM. Also, the figures for the MIC in [12] and in test [14] were 32 µM and more than 32 µM, respectively. Also, the inhibition at 50 µM turned out to be 99% in [2], 54% in [3] and 11% in test [5]. Further, the results for the Activity in test [4] and in test [11] were 90% and 92%, respectively. Further, in test [13], the IC50 is 1000 nM.
